Test results published in patent US8586566B2, “Unsaturated heterocyclic derivatives” (ARIAD Pharmaceuticals, Inc., priority 2005, dated 2013).

Row | Structure (SMILES) | melting point
1 | Cc1ccc(C(=O)Nc2cccc(C(F)(F)F)c2)cc1/C=C/n1cnc2c(NC3CC3)ncnc21 [Example 5, (E)-3-(2-(6-(Cyclopropylamino)-9H-purin-9-yl)vinyl)-4-methyl-N-(3-(trifluoromethyl)phenyl)benzamide] | 201 °C
2 | Cc1ccc(NC(=O)Nc2cccc(C(F)(F)F)c2)cc1/C=C/n1cnc2c(NC3CC3)ncnc21 [Example 6, (E)-1-(3-(2-(6-(Cyclopropylamino)-9H-purin-9-yl)vinyl)-4-methylphenyl)-3-(3-(trifluoromethyl)phenyl)urea] | 160 to 162 °C
3 | Cc1ccc(NC(=O)c2cccc(C(F)(F)F)c2)cc1/C=C/n1cnc2c(Nc3ccc(P(C)(C)=O)cc3)ncnc21 [Example 3, (E)-N-(3-(2-(6-(4-(Dimethylphosphoryl)phenylamino)-9H-purin-9-yl)vinyl)-4-methylphenyl)-3-(trifluoromethyl)benzamide] | 230 to 234 °C
